Series [1] can be described thus: Tissue distribution following oral administration in rats (prodrug and metabolite levels in liver and blood). It is filed as in vivo. The note with it: rat, 1 hour after oral administration, 5 mg/kg. The method, then:
The liver specificity of the disclosed compounds is compared relative to a corresponding active compound in the liver and other organs that could be targets of toxicity.
Reference compounds and the cyclic deoxyribonucleotide compounds are administered at 5-50 mg/kg to fasted rats by oral gavage. Plasma concentrations of the metabolites, and parent compounds in circulation and in the hepatic portal vein are determined by HPLC-UV, and the liver, small intestine, and other organ concentrations are measured by LC-MS using the standard chromatography method.

The conditions of series [2]: in vivo; cited from earlier work.
Where [3] appears, read: prodrug level in blood, read-out: Drug blood.
The mark [4] stands for this setting: prodrug level in liver, read-out: Drug liver.

Data on 3 compounds can be found in patent US12110311B2, “Cyclic deoxyribonucleotide compounds” (NUCORION PHARMACEUTICALS, INC., priority 2019, dated 2024).

Read-outs that look alike come from different tables or passages of the source.

For the compound `CCCOC(=O)c1ccccc1COP1(=O)OC[C@H]2O[C@@H](n3cc(F)c(=O)[nH]c3=O)C[C@@H]2O1` (stereo partly drawn) [Compound 126, Propyl 2-((((4aR,6R,7aS)-6-(5-fluoro-2,4-dioxo-3,4-dihydropyrimidin-1(2H)-yl)-2-oxidotetrahydro-4H-furo[3,2-d][1,3,2]dioxaphosphinin-2-yl)oxy)methyl)benzoate], the results for the concentration at 1 h in series [1] (setting [3]) and in series [1] (setting [4]) were 2.7 ng/mL and 9.3 ng/g, respectively.
On to `CC(C)OC(=O)c1ccccc1COP1(=O)OC[C@H]2O[C@@H](n3cc(F)c(=O)[nH]c3=O)C[C@@H]2O1` (stereo partly drawn) [Compound 124, Isopropyl 2-((((4aR,6R,7aS)-6-(5-fluoro-2,4-dioxo-3,4-dihydropyrimidin-1(2H)-yl)-2-oxidotetrahydro-4H-furo[3,2-d][1,3,2]dioxaphosphinin-2-yl)oxy)methyl)benzoate], for which the results for the concentration at 1 h in series [1] (setting [3]) and in series [1] (setting [4]) were 11 ng/mL and 668 ng/g, respectively.
As for `O=c1[nH]cc(F)c(=O)[nH]1` [5-Fluorouracil], in series [2], the biological half-life was around 16 minutes.
